# Measured values taken from patent publication US20260043061A1, “ENZYMATICALLY MEDIATED REACTIVE CRYSTALLIZATION OF STEVIOL GLYCOSIDES” (Arzeda Corp., priority 2022, published 2026).
# Assay: Solubility of select steviol glycosides at room temperature
# Format: physicochemical
# Settings: in water, some species may not be completely pure
# From the text: Pure steviol glycosides are sparingly soluble in water. Solubility measurements may reflect the true thermodynamic solubility or a short-term kinetic solubility. The kinetic solubility value occurs when an isomeric form has been prepared that is not thermodynamically stable at long time scales yet has higher solubility at short times scales. A few steviol glycoside species have a free carboxylic acid group. These species tend to have higher solubility. Nevertheless, steviol glycosides are generally poorly soluble in water, as shown in Table 3 (certain measurements are for species that may not be completely pure).
row,Molecule,Solubility [% wt %]
1,"C=C1C[C@@]23CC[C@H]4[C@@](C)(CCC[C@@]4(C)C(=O)O[C@@H]4O[C@H](CO)[C@@H](O)[C@H](O)[C@H]4O)[C@@H]2CC[C@]1(O[C@@H]1O[C@H](CO)[C@@H](O)[C@H](O[C@@H]2O[C@H](CO)[C@@H](O)[C@H](O)[C@H]2O)[C@H]1O[C@@H]1O[C@H](CO)[C@@H](O)[C@H](O)[C@H]1O)C3 [Reb A, rebaudioside A]",0.46
2,"C=C1C[C@@]23CC[C@H]4[C@@](C)(CCC[C@@]4(C)C(=O)O[C@@H]4O[C@H](CO)[C@@H](O)[C@H](O[C@@H]5O[C@H](CO)[C@@H](O)[C@H](O)[C@H]5O)[C@H]4O[C@@H]4O[C@H](CO)[C@@H](O)[C@H](O)[C@H]4O)[C@@H]2CC[C@]1(O[C@@H]1O[C@H](CO)[C@@H](O)[C@H](O[C@@H]2O[C@H](CO)[C@@H](O)[C@H](O)[C@H]2O)[C@H]1O[C@@H]1O[C@H](CO)[C@@H](O)[C@H](O)[C@H]1O)C3 [Reb M, rebaudioside M]",0.05
3,rebaudioside C [Reb C],0.20
4,"C=C1C[C@@]23CC[C@H]4[C@@](C)(CCC[C@@]4(C)C(=O)O[C@@H]4O[C@H](CO)[C@@H](O)[C@H](O)[C@H]4O)[C@@H]2CC[C@]1(O[C@@H]1O[C@H](CO)[C@@H](O)[C@H](O[C@@H]2O[C@H](CO)[C@@H](O)[C@H](O)[C@H]2O)[C@H]1O[C@@H]1O[C@H](CO)[C@@H](O)[C@H](O)[C@H]1O)C3 [Reb A 97%, rebaudioside A]",0.80
5,"C=C1C[C@@]23CC[C@H]4[C@@](C)(CCC[C@@]4(C)C(=O)O[C@@H]4O[C@H](CO)[C@@H](O)[C@H](O)[C@H]4O)[C@@H]2CC[C@]1(O[C@@H]1O[C@H](CO)[C@@H](O)[C@H](O[C@@H]2O[C@H](CO)[C@@H](O)[C@H](O)[C@H]2O)[C@H]1O[C@@H]1O[C@H](CO)[C@@H](O)[C@H](O)[C@H]1O)C3 [Reb A hydrate, rebaudioside A]",0.10
6,"C=C1C[C@@]23CC[C@H]4[C@@](C)(CCC[C@@]4(C)C(=O)O[C@@H]4O[C@H](CO)[C@@H](O)[C@H](O)[C@H]4O[C@@H]4O[C@H](CO)[C@@H](O)[C@H](O)[C@H]4O)[C@@H]2CC[C@]1(O[C@@H]1O[C@H](CO)[C@@H](O)[C@H](O[C@@H]2O[C@H](CO)[C@@H](O)[C@H](O)[C@H]2O)[C@H]1O[C@@H]1O[C@H](CO)[C@@H](O)[C@H](O)[C@H]1O)C3 [Reb D, rebaudioside D]",0.10
7,"C=C1C[C@@]23CC[C@H]4[C@@](C)(CCC[C@@]4(C)C(=O)O[C@@H]4O[C@H](CO)[C@@H](O)[C@H](O)[C@H]4O)[C@@H]2CC[C@]1(O[C@@H]1O[C@H](CO)[C@@H](O)[C@H](O)[C@H]1O[C@@H]1O[C@H](CO)[C@@H](O)[C@H](O)[C@H]1O)C3 [Stevioside, stevioside]",0.44
8,"C=C1C[C@@]23CC[C@H]4[C@@](C)(CCC[C@@]4(C)C(=O)O[C@@H]4O[C@H](CO)[C@@H](O)[C@H](O)[C@H]4O)[C@@H]2CC[C@]1(O[C@@H]1O[C@H](CO)[C@@H](O)[C@H](O[C@@H]2O[C@H](CO)[C@@H](O)[C@H](O)[C@H]2O)[C@H]1O[C@@H]1O[C@H](CO)[C@@H](O)[C@H](O)[C@H]1O)C3 [Reb A anhydrous, rebaudioside A]",0.80
